Assay results published in patent US20230052740A1, “MODULATORS OF CIRCADIAN RHYTHMS AND USES THEREOF” (The Regents of the University of California, priority 2019, published 2023).
Read-outs that look alike come from different tables or passages of the source.

Experiments:
[1] = biological target: T1, MT2 (Homo sapiens, UniProt P49286); assay: cAMP assay (GloSensor), isoproterenol-stimulated cAMP in HEK cells; type: cell-based; set-up: expressed in transfected cells; host or cells: HEK-T (HEK-293 T) cells, co-transfected with GloSensor DNA; settings: for hMT2 pEC50: FIG. 3D-3F, transiently expressed receptor, isoproterenol-stimulated cAMP production; for hMT2 Schild slope / hMT2 pKB: Schild analysis, competitive antagonism of melatonin
T1 sequence (P49286 1-362): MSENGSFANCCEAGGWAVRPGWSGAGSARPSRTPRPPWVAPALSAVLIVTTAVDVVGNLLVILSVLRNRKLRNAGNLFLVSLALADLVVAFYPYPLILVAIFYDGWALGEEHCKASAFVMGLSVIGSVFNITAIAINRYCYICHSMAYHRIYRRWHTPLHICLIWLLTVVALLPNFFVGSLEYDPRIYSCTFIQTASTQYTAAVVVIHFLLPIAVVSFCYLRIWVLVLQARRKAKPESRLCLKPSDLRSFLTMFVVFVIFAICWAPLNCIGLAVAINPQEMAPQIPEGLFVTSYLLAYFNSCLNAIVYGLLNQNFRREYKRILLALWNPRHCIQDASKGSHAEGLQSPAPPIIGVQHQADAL
Protocol: MT1 and MT2 receptors were tested using Promega's spilt luciferase based GboSensor cAMP biosensor technology. HEK-T cells were plated in 15 cm cell culture dish (at a density of 18 million cells) containing DMEM composed of 10% dialyzed FBS, 2 mM L-glutamine, 100 units/ml penicillin G, 100 μg/ml streptomycin for 4-6 hour. Then, cells were co-transfected with 8 μg of construct which encodes either MT1 or MT2 (de-Tangonized constructs) and […] of Glosensor DNA. […] The next day, cell medium were discarded and loaded with 20 μl of assay buffer (1×HBSS, 20 mM HEPES, pH 7.4, 0.1% BSA). To measure agonist activity of MT1 or MT2 receptor, 10 μl of test compound solution at 3× final concentration was added for 15 minutes followed by addition of 10 μl of luciferin/isoproterenol mixture (at a final concentration of 4 mM and 200 nM respectively) for another 15 mins for luminescence quantification. Then, plates were counted using SpectraMax luminescence reader (Molecular Device). Data were analyzed using GraphPad Prism 6.0.

[2] = biological target: hMT1 (Homo sapiens, UniProt P48039); assay: 2-[125I]-iodomelatonin competition binding, CHO cell membranes; settings: read-out: Ki at MT1
Protocol: For receptor binding studies, '7447 was dissolved in 50% DMSO/50% ethanol for 13 mM stock solution, diluted 1/10 in 100% ethanol then 1/10 again in 50% ethanol/50% Tris-HCl buffer. Both '3384 and '4226 were dissolved in 100% ethanol for 13 mM stock solutions and then diluted 1/10 in 50% ethanol/50% Tris-HCl buffer. Further dilutions were done in Tris-HCl buffer.
Assays were incubated for 1 hour at 25° C. Bound radioligand was separated from freeby rapidvacuum filtration using glass microfiber filters (Whatman, Krackeler Scientific, Inc., Albany N.Y., USA) saturated in 0.5% polyethylenimine solution.
Affinity shifts or lack thereof with G protein inactivation indicate apparent efficacy (Lefkowitz, R. J. et al., J Biol Chem 251, 4686-4692, 1976) as ligands are classified as agonists (ΔpKi% MLT>20%), antagonists (ΔpKi% MLT<20%, >−20%), or inverse agonists (ΔpKi% MLT<−20%) accordingly.

[3] = system: 318 other GPCRs; assay: PRESTO-Tango GPCR-ome counter-screen, agonist mode; type: cell-based; settings: arrestin recruitment Tango, in words
Protocol: Screening of compounds in the PRESTO-Tango GPCR-ome was accomplished as previously described (Kroeze, supra). with several modifications. First, HTLA cells were plated in DMEM with 10% FBS and 10 U/mL penicillin-streptomycin. Next, the cells were transfected using an in-plate PEI method (Longo, P. A. et al., Methods Enzymol 529, 227-240, 2013). PRESTO-Tango receptor DNAs were resuspended in OptiMEM and hybridized with PEI prior to dilution and distribution to 384-well plates and subsequent addition to cells. After overnight incubation, drugs were added to cells without replacement of the medium. The remaining steps of the PRESTO-Tango protocol were followed as previously described.

Sequence of hMT1 (P48039 whole entry): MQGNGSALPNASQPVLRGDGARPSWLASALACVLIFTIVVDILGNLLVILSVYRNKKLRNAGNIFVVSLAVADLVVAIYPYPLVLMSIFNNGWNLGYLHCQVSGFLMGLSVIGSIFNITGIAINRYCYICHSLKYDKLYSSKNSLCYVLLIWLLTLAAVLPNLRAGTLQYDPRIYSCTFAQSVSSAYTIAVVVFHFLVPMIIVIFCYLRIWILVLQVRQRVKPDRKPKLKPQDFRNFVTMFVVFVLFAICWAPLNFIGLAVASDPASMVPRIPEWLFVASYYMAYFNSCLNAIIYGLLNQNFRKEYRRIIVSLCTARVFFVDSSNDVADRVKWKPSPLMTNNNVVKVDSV

Structure (SMILES) | hMT2 pEC50 [1] | Emax ([1]; HEK293, FIG. 3F, normalized to maximal melatonin effect, read-out: hMT2 Emax) [%] | Emax ([1]; HEK293, Table 2, agonist, normalized to melatonin response, read-out: MT2 % Emax (converted)) [%] | Emax ([1]; HEK293, Table 4, agonist, read-out: Emax % MT2) [%] | pIC50 MT2 ([1]; Table 4, agonist) | EC50 ([1]; agonist, isoproterenol-stimulated cAMP inhibition, read-out: EC50 at MT2) [µM] | hMT2 Emax ([1]; FIG. 3D-3E, normalized to isoproterenol-stimulated basal activity) [%] | hMT2 Schild slope [1] | hMT2 pKB [1] | MT2 % Emax ([1]; Table 2, cell marked Inverse (inverse agonist)) [%] | pEC50 MT2 (IA) ([1]; Table 4, IA (inverse agonist)) | Ki ([2]; in the absence of GTP) [µM] | Ki ([2]; with GTP (100 μM)) [µM] | off-target agonist activity [3] | Emax ([1]; HEK293, FIG. 3D-3E, normalized to isoproterenol-stimulated basal activity, read-out: hMT2 Emax) [%] | Emax ([1]; HEK293, Table 2, cell marked Inverse (inverse agonist), read-out: MT2 % Emax (converted)) [%] | EC50 ([1]; Table 4, IA (inverse agonist), read-out: pEC50 MT2 (IA) (converted)) [µM]
COc1ccc(Br)c(CNc2cccnc2)c1 [ZINC128734226] | 8.15±0.09 | 89 ± 3 | 89 | 80 | 8.2 | 0.0063 |  |  |  |  |  |  |  |  |  |  | 
CC(C)c1ccc(CNc2cccc(-c3ncn[nH]3)c2)cc1 [ZINC157673384] | 6.18±0.04 |  |  |  |  |  | −153±14 | 1.0±0.1 | 6.7±0.1 | 153 ± 14 | 6.5 | 0.938 | 0.063 | Neither of the two inverse agonists had significant activity against any of the 318 receptors |  |  | 
Clc1ccc(CNc2cccc(-c3nnc[nH]3)c2)c(Br)c1 [ZINC555417447] | 5.66±0.10 |  |  |  |  |  |  | 1.3±0.4 | 6.2±0.1 |  |  | 0.304 | 0.0075 | Neither of the two inverse agonists had significant activity against any of the 318 receptors | -84 ± 9 | 84 | 1
